Results from paper PMC7515950, “Physiologically based pharmacokinetic modeling to assess metabolic drug–drug interaction risks and inform the drug label for fedratinib” (Cancer Chemotherapy and Pharmacology, 2020).
Like-named read-outs stand apart in the source and are kept apart here.

Legend:
[1] = Physicochemical properties (Study QUA-PG-2011-20593); settings: for pKa: free form is a diprotic base
From the text: The physicochemical properties and blood binding parameters of fedratinib including molecular weight, logP, pKa, fu, and B/P were experimentally measured and listed in Table 1.

CYP2C19 = target: T1, CYP2C19 (Homo sapiens, UniProt P33261); assay: CYP mechanism-based inhibition in human liver microsomes (MIH0887), CYP2C19; format: in vitro ADME; settings: HLM
T1 construct: from tissue; host or cells: human liver microsomes
T1 sequence (P33261 whole entry): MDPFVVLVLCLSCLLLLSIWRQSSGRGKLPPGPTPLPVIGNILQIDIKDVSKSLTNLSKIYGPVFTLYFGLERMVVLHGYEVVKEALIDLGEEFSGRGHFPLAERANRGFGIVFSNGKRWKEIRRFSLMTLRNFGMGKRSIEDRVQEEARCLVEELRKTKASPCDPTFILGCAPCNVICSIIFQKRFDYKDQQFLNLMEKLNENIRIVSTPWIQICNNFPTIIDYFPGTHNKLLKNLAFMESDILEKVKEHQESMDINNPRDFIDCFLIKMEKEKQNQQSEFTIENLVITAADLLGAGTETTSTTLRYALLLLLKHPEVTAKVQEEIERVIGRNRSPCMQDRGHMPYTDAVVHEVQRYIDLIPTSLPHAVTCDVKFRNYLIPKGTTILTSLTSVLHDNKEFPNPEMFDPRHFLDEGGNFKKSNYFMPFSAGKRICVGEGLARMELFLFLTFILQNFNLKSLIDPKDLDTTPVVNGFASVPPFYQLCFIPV
Experimental: (§1) The CYP enzyme reverse inhibition and mechanism-based inhibition (MBI) parameters were estimated in the human liver microsome (HLM) incubation in vitro studies. The reported reversible inhibition parameter (i.e., apparent Ki) values for CYP2C8, CYP2C9, and CYP2D6, along with the MBI parameters (i.e., KI or Kapp and kinact) for CYP2C19 and CYP3A4, were supplied to the PBPK DDI model (see Table 2).

CYP3A4 = target: T2, CYP3A4 (Homo sapiens, UniProt P08684); assay: CYP reversible and mechanism-based inhibition in human liver microsomes (MIH0887), CYP3A4; format: in vitro ADME
T2 construct: from tissue; host or cells: human liver microsomes
T2 sequence (P08684 2-503 limits assumed): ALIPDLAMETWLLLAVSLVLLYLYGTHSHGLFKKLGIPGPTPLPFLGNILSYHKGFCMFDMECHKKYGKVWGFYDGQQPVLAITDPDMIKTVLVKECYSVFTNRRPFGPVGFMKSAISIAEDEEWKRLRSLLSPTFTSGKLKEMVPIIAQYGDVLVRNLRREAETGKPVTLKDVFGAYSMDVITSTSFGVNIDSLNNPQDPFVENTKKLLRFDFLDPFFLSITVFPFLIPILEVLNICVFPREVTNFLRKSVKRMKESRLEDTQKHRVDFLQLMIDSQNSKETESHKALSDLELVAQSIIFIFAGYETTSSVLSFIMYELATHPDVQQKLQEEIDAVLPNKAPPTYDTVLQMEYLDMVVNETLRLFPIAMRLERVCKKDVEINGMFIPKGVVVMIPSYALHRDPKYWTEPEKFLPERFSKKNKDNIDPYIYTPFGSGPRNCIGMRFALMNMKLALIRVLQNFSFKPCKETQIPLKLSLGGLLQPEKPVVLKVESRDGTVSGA
Experimental: as §1

BCRP = target: T3, BCRP (Homo sapiens, UniProt Q9UNQ0); assay: BCRP inhibition, vesicle-based (TRI0013); format: in vitro ADME
T3 sequence (Q9UNQ0 1-655): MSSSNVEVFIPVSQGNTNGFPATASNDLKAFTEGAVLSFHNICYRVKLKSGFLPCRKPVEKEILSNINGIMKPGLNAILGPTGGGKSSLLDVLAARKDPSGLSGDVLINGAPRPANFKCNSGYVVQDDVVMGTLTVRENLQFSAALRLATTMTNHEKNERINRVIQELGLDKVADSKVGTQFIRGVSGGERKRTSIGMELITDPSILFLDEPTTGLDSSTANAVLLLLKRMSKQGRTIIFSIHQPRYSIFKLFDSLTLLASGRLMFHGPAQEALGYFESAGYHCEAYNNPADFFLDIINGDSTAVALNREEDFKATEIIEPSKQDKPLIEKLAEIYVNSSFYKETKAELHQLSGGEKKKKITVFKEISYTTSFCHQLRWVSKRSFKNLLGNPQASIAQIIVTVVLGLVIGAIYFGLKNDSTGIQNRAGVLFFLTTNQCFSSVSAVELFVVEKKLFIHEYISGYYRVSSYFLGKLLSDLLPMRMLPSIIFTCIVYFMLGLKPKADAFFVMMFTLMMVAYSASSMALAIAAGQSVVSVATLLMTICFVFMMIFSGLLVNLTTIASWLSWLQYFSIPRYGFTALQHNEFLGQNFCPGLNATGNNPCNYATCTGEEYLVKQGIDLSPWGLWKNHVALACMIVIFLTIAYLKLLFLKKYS
From the text: The reported IC50 values were converted to Ki values using the Cheng-Prusoff equation [10]:
The transporter inhibition parameters (Ki) for fedratinib were derived from the experimentally determined IC50 values using the Cheng-Prusoff equation, i.e., Ki = IC50/(1+[S]/Km) with the substrate concentrations ([S]) reported in the experimental studies and the substrate Km values collected from literature, as summarized in Table 13.

[2] = Biliary excretion in bile-duct cannulated rats (PDM-07-10348-059); format: in vivo; settings: iv 5 mg/kg
From the text: The biliary excretion of unchanged drug accounts for 2.3% of the total intravenous dose in bile-duct cannulated (BDC) rats.

[3] = Clinical single-dose PK of fedratinib in healthy subjects; format: in vivo, human; settings: corresponding to dose-normalized AUC of 30 ng·h/(mL·mg)
Experimental: First, the developed PBPK model was verified against clinical observations in healthy subjects administered single doses of 300 mg fedratinib alone without further modifications. Second, the developed PBPK model was verified against clinical data under repeated dosing scenarios. As no repeated-dosing studies have been conducted in healthy volunteers, the model verification was conducted using the clinical PK profiles from myelofibrosis (MF) patients administered repeated doses of 300, 400, or 500 mg fedratinib once a day (QD). Third, the PBPK model of fedratinib was verified against the clinical data observed in healthy volunteers co-dosed with fedratinib (300 mg, single dose) and ketoconazole (200 mg BID).
AUC refers to AUCinf for the single dose scenarios and AUCτ for the repeated QD dose scenarios. The number of subjects (n) = 6 in TDU12620, n = 17 in INT12894, n = 10-11 in ARD11936, and n = 100 in virtual trial simulations, respectively. All model simulations listed in the table were simulated using the default “Healthy Volunteers” and “Cancer” population files provided in Simcyp® (V17R1). The prediction error is calculated using PE = (GMprediction – GMobservation)/GMobservation ×100%, where GM refers to geometric mean. SD refers to standard deviation.

[4] = healthy subjects, cited from earlier work; for AUC (AUCinf) / Cmax: observation, ref Study TDU12620/INT12894

Structure (SMILES): Cc1cnc(Nc2ccc(OCCN3CCCC3)cc2)nc1Nc1cccc(S(=O)(=O)NC(C)(C)C)c1 [Fedratinib]
- LogPo:w ([1]; Study QUA-PG-2011-20593): 3.500
- logP ([1]; octanol/water, Study QUA-PG-2011-20593): 3.5
- pKa ([1]; pKa1 (base)): 6.4
- pKa ([1]; pKa2 (base)): 9.6
- CYP2C19 KI or Kapp (CYP2C19): 112 µM
- CYP2C19 KI or Kapp (CYP2C19; listed as fedratinib): 112.000 µM
- kinact (CYP2C19; human, human liver microsomes): 0.000558 s⁻¹
- Ki (CYP3A4; HLM, assuming Ki = IC50/2): 9.55 µM
- CYP3A4 KI or Kapp (CYP3A4; HLM, mechanism-based inhibition): 1.57 µM
- CYP3A4 KI or Kapp (CYP3A4; HLM, mechanism-based inhibition, listed as fedratinib): 1.570 µM
- kinact (CYP3A4; human, human liver microsomes, HLM, mechanism-based inhibition): 0.000717 s⁻¹
- IC50 (CYP3A4; midazolam as substrate, absence of NADPH during pre-incubation, read-out: CYP3A IC50): 19.1 µM
- Ki (BCRP; from IC50 by Cheng-Prusoff, probe methotrexate): 27.8 µM
- IC50 (BCRP; probe methotrexate 100 μM): 29.9 µM
- biliary excretion of unchanged drug, percent of total intravenous dose [2]: 2.3%
- CL/F [3]: 33.3 L/h
- AUC (AUCinf) ([4]; 300 mg single dose, GM): 6530 ng·h/mL
- Cmax ([4]; 300 mg single dose, GM): 497 ng/mL
- AUC (AUCinf) ([4]; 300 mg single dose, Mean (SD)): 6730 (1990) ng/mL·h
- Cmax ([4]; 300 mg single dose, Mean (SD)): 521 (189) ng/mL
- AUC (AUCinf) ([4]; 500 mg single dose, GM): 13200 ng·h/mL
- Cmax ([4]; 500 mg single dose, GM): 683 ng/mL
- AUC (AUCinf) ([4]; 500 mg single dose, Mean (SD)): 13900 (5240) ng/mL·h
- Cmax ([4]; 500 mg single dose, Mean (SD)): 720 (243) ng/mL
- dose-normalized AUC ([4]; single doses above 100 mg, ref [3]): 30 ng·h/mL/mg
